{"source": "patent US12410391B2", "about": "“In vitro cell culture mucus systems” (The University of North Carolina at Chapel Hill, priority 2018, dated 2025)", "test_system": "human colonic epithelium (monolayer from human colonic stem cells)", "test": "VIP-stimulated water secretion into the apical reservoir under ALI culture", "format": "cell-based", "procedure": "The inserts were rinsed with PBS×1 prior to cell plating. Intestinal epithelial cells were passaged according to the procedure described above except that the cells were suspended in expansion medium (EM-Table 1) and plated directly onto the top compartment of Transwell inserts. Cells from 1 well of the 6-well plate were dispersed into 6 separate 12-well Transwell inserts (1 mL in the upper [apical] reservoir, and 2 mL in the lower [basal] reservoir). The medium was exchanged every 48 h. To induce cell differentiation and mucus production, the medium was switched to differentiation medium (DM-Table 1) after 5 days. In the submerged culture, 1 mL DM was added in the apical reservoir and 2 mL in the basal reservoir. The medium was exchanged every 48 h thereafter. In the ALI culture, the medium in the apical reservoir was completely aspirated, 1 mL DM or DM-VIP (DM containing 330 ng/mL VIP [AnaSpec, #AS-22872]) was added to the basal reservoir, and medium was exchanged every 24 h thereafter. By day 10, the system was suitable for characterization and cytokine assay.\nTo verify the function of VIP to stimulate water secretion, human colonic stem cells were cultured under EM for 5 days. At day 5, the basal medium was switched to DM with varying VIP concentration and the cells placed under the ALI culture conditions. After 24 h, the water accumulated in the apical reservoir was collected and weighed with an analytical balance. In the absence of VIP, the accumulation of water in the apical reservoir was not measurable. […] A plateau was reached when VIP concentration was >1 ng/mL. At this saturating concentration, approximately 42 mg/cm^2 water accumulated after a 24 h incubation with VIP, corresponding to a water depth in the reservoir of 420 μm."}
{"substance": "vasoactive intestinal peptide [VIP]", "values": [{"measurement": "VIP concentration at which plateau of water secretion was reached", "setting": "ALI culture, 24 h", "result": "> 1", "unit": "ng/mL"}, {"measurement": "water accumulated in apical reservoir", "setting": "saturating VIP concentration, 24 h incubation", "result": "approximately 42 mg/cm^2"}, {"measurement": "water depth in the reservoir", "setting": "saturating VIP concentration, 24 h incubation, corresponds to the accumulated water", "result": 420, "unit": "μm"}]}
